Among the data in patent publication US9545105B2, “1-(heterocyclic carbonyl) piperidines” (BAYER INTELLECTUAL PROPERTY GMBH, priority 2010, dated 2017) are Efficacy values, retold here.

One assay has as its system Sphaerotheca fuliginea. Kind of assay: In vivo preventive test on Sphaerotheca fuliginea (cucumber). The note with it: 500 ppm of active ingredient, evaluated 7 days after inoculation. The gist of the method:
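Active compound in DMF with alkylarylpolyglycolether emulsifier, diluted in water and sprayed on young cucumber plants at the stated rate. One day later, plants inoculated with S. fuliginea spore suspension and kept at about 23 °C, 70% RH; efficacy scored 7 days post-inoculation, 0% = untreated, 100% = no disease.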

The test system of assay [1] is Blumeria graminis f. sp. hordei. Briefly: In vivo preventive test on Blumeria graminis (barley). The note with it: 500 ppm of active ingredient, evaluated 7 days after inoculation. The method, then:
Solvent: 49 parts by weight of N,N-dimethylacetamide Emulsifier: 1 part by weight of alkylaryl polyglycol ether To produce a suitable preparation of active compound, 1 part by weight of active compound or active compound combination is mixed with the stated amounts of solvent and emulsifier, and the concentrate is diluted with water to the desired concentration. To test for preventive activity, young plants are sprayed with the preparation of active compound or active compound combination at the stated rate of application. After the spray coating has been dried, the plants are dusted with spores of Blumeria graminis f. sp. hordei. The plants are placed in the greenhouse at a temperature of approximately 18° C. and a relative atmospheric humidity of approximately 80% to promote the development of mildew pustules. The test is evaluated 7 days after the inoculation. 0% means an efficacy which corresponds to that of the untreated control, while an efficacy of 100% means that no disease is observed.

For another assay, the system named is Uromyces appendiculatus. Briefly: In vivo preventive test on Uromyces appendiculatus (bean rust). The note with it: 100 ppm of active ingredient, evaluated 10 days after inoculation. The method, then:
Solvent: 24.5 parts by weight of acetone • 24.5 parts by weight of N,N-dimethylacetamide Emulsifier: 1 part by weight of alkylaryl polyglycol ether To produce a suitable preparation of active compound, 1 part by weight of active compound is mixed with the stated amounts of solvent and emulsifier, and the concentrate is diluted with water to the desired concentration. To test for preventive activity, young plants are sprayed with the preparation of active compound at the stated rate of application. After the spray coating has dried on, the plants are inoculated with an aqueous spore suspension of the causal agent of bean rust (Uromyces appendiculatus) and then remain for 1 day in an incubation cabinet at approximately 20° C. and a relative atmospheric humidity of 100%. The plants are then placed in a greenhouse at approximately 21° C. and a relative atmospheric humidity of approximately 90%. The test is evaluated 10 days after the inoculation. 0% means an efficacy which corresponds to that of the untreated control, while an efficacy of 100% means that no disease is observed.

In the next assay the test system is Pyrenophora teres. Kind of assay: In vivo preventive test on Pyrenophora teres (barley). The conditions noted are these: 500 ppm of active ingredient, evaluated 7-9 days after inoculation. In a few lines: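 Young barley plants sprayed with compound in DMF/alkylaryl polyglycol ether emulsion; inoculated with P. teres spores one day later. 48 h at 22 °C, 100% humidity, then greenhouse ~20 °C, ~80% humidity; efficacy scored 7-9 days post-inoculation, 0% = untreated, 100% = no disease.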

In the next assay the test system is Phakopsora pachyrhizi. Briefly: In vivo protective test on Phakopsora pachyrhizi (soybeans). The note with it: 250 ppm of active ingredient, evaluated 11 days after inoculation.

On to `CCC(c1ccccc1)C1CCCCN1C(=O)c1c(C(F)F)nn(C)c1F` (stereo not drawn) [Example 136], for which the Efficacy is on record as 98% in the assay on Sphaerotheca fuliginea, 100% in assay [1], 78% in the assay with Uromyces appendiculatus and 100% with Pyrenophora teres.

`CCc1nn(C)c(F)c1C(=O)N1CCCCC1c1ccc(Cl)cc1` (stereo not drawn) [Example 54]: the figures for the Efficacy (in assay [1]; with Uromyces appendiculatus; in the assay with Pyrenophora teres) were 70%, 96% and 100%, respectively.

Turning to `Cc1cc(C)cc(C2CCCCN2C(=O)c2c(C)nn(C)c2F)c1` (stereo not drawn) [Example 10], the Efficacy in the assay with Sphaerotheca fuliginea was 95%; in assay [1] it was 88%; in the assay with Uromyces appendiculatus, 100%; in the assay on Pyrenophora teres, 100%; with Phakopsora pachyrhizi, 98%.

For `CCc1nn(C)c(F)c1C(=O)N1CCCCC1c1cc(C)cc(C)c1` (stereo not drawn) [Example 11], the Efficacy in the assay with Sphaerotheca fuliginea is recorded as 95%; in assay [1], 80%; in the assay on Uromyces appendiculatus, 98%; with Pyrenophora teres, 100%; in the assay with Phakopsora pachyrhizi it was 96%.

Turning to `CCC(c1ccccc1)C1CCCCN1C(=S)c1c(C(F)F)nn(C)c1F` (stereo not drawn) [Example 140], the Efficacy in the assay with Sphaerotheca fuliginea is 100%; in assay [1] it was 100%; in the assay on Uromyces appendiculatus, 94%; in the assay on Pyrenophora teres, 100%.
